Laboratory results from patent publication US9580430B2, “9H-pyrimido[4,5-B]indoles and related analogs as BET bromodomain inhibitors” (THE REGENTS OF THE UNIVERSITY OF MICHIGAN, priority 2014, dated 2017).
Read-outs that look alike come from different tables or passages of the source.

Columns and labels:
recombinant BRD4 BD1 = target: T1, recombinant BRD4 BD1 (Homo sapiens, UniProt O60885); experiment: Competitive fluorescence-polarization (FP) binding assay, BRD4 BD1; details: for Ki: read-out: Binding affinities (FP) BRD4BD1 Ki; for IC50 (nM) BRD4 BD1: probe 1.5 nM
T1 construct: for recombinant BRD4 BD1 and BRD4 BD2 proteins
Experimental: (§1) Fluorescence Polarization (FP) competitive binding studies were carried out using a FAM labeled fluorescent probe (ZBA248 or BRD-1F) to determine binding affinities of representative Compounds of the Disclosure for recombinant BRD4 BD1 and BRD4 BD2 proteins. For example, equilibrium dissociation constants (Kd) values of ZBA248 to these […] proteins were determined from protein saturation experiments by monitoring the total fluorescence polarization of mixtures composed with the fluorescent probe at a fixed concentration and proteins with increasing concentrations up to full saturation. Serial dilutions of testing protein were mixed with ZBA248 to a final volume of 200 μl in the assay buffer. […] Plates were incubated at room temperature for 30 minutes with gentle shaking to assure equilibrium. […] Kd values of ZBA248 were calculated by fitting the sigmoidal dose-dependent FP increases as a function of protein concentrations using Graphpad Prism 6.0 software (Graphpad Software, San Diego, Calif.).
(§2) The IC50 and Ki values of representative Compounds of the Disclosure were determined in a competitive binding experiment as described above. Mixtures of 10 μl of the tested compounds in assay buffer with 40% Ethylene Glycol and 190 μl of preincubated protein/probe complex solution in the assay buffer (100 mM potassium phosphate, pH 6.5, 0.01% Triton X-100) were added into assay plates which were incubated at room temperature for 30 minutes with gentle shaking. Final concentrations of proteins were 10 and 6 nM in assays for BD1 and BD2 of BRD4, respectively. […] FP values were measured as described above. IC50 values were determined by nonlinear regression fitting of the competition curves.

recombinant BRD4 BD2 = target: T2, recombinant BRD4 BD2 (Homo sapiens, UniProt O60885); experiment: Competitive fluorescence-polarization (FP) binding assay, BRD4 BD2; details: for Ki: read-out: Binding affinities (FP) BRD4BD2 Ki; for IC50 (nM) BRD4 BD2: probe 1.5 nM
T2 construct: for recombinant BRD4 BD1 and BRD4 BD2 proteins
Experimental: as §1, §2

MDA-MB-436 = experiment: Cell growth inhibition, MDA-MB-436 breast cancer cells (WST-8); type: cell-based; details: Homo sapiens, 96 h; MDA-MB-436 cells, 4 days; read-out: Cellular data MDA-MB-436 IC50
Experimental: All the breast cancer cell lines were obtained from the ATCC. Cell viability was determined using the WST-8 (2-(2-methoxy-4-nitrophenyl)-3-(4-nitrophenyl)-5-(2,4-disulfophenyl)-2H-tetrazolium, monosodium salt) based Cell Counting-8 Kit (Dojindo Molecular Technologies, Inc., Rockville, Md.) according to the manufacture's instruction. […] The absorbance was measured at 450 nm using a SPECTRAmax PLUS plate reader (Molecular Devices, Sunnyvale, Calif.). The IC50 was calculated using the GraphPad Prism 5 software.

[1] = competitive FP assay, protein 10 nM, probe […], read-out: IC50 (nM) BRD4 BD1
[2] = competitive FP assay, protein 6 nM, probe […], read-out: IC50 (nM) BRD4 BD2
[3] = FP competitive binding, BRD4 BD1, read-out: Binding affinities (FP) BRD4BD1 IC50
[4] = FP competitive binding, BRD4 BD1
[5] = FP competitive binding, BRD4 BD2, read-out: Binding affinities (FP) BRD4BD2 IC50
[6] = FP competitive binding, BRD4 BD2

| Structure (SMILES) | IC50 (recombinant BRD4 BD1; [1]) | IC50 (recombinant BRD4 BD2; [2]) | IC50 (recombinant BRD4 BD1; [3]) | Ki (recombinant BRD4 BD1; [4]) | IC50 (recombinant BRD4 BD2; [5]) | Ki (recombinant BRD4 BD2; [6]) | IC50 (MDA-MB-436) |
| --- | --- | --- | --- | --- | --- | --- | --- |
| COc1cc2c(cc1-c1c(C)noc1C)[nH]c1nc(C)nc(Sc3ccccc3C(C)C)c12 [Cpd. No. 25, 4-(4-((2-isopropylphenyl)thio)-6-methoxy-2-methyl-9H-pyrimido[4,5-b]indol-7-yl)-3,5-dimethylisoxazole] | > 1000 nM | > 1000 nM |  |  |  |  |  |
| COc1cc2c(cc1-c1c(C)noc1C)[nH]c1nc(C)nc(Sc3c[nH]c4ccccc34)c12 [Cpd. No. 26, 4-(4-((1H-indol-3-yl)thio)-6-methoxy-2-methyl-9H-pyrimido[4,5-b]indol-7-yl)-3,5-dimethylisoxazole] | > 1000 nM | > 1000 nM |  |  |  |  |  |
| COc1cc2c(cc1-c1c(C)noc1C)[nH]c1nc(C)nc(Sc3cccc(C(C)(C)C)c3)c12 [Cpd. No. 27, 4-(4-((3-(tert-butyl)phenyl)thio)-6-methoxy-2-methyl-9H-pyrimido[4,5-b]indol-7-yl)-3,5-dimethylisoxazole] | > 1000 nM | > 1000 nM |  |  |  |  |  |
| COc1cc2c(cc1-c1c(C)noc1C)[nH]c1nc(C)nc(Oc3cccc(Cl)c3)c12 [Cpd. No. 95, 4-(4-(3-chlorophenoxy)-6-methoxy-2-methyl-9H-pyrimido[4,5-b]indol-7-yl)-3,5-dimethylisoxazole] | > 1000 nM | > 1000 nM |  |  |  |  |  |
| COc1cc2c(cc1-c1c(C)noc1C)[nH]c1nc(C)nc(Oc3cccnc3)c12 [Cpd. No. 96, 4-(6-methoxy-2-methyl-4-(pyridin-3-yloxy)-9H-pyrimido[4,5-b]indol-7-yl)-3,5-dimethylisoxazole] | 864 nM | 379 nM |  |  |  |  |  |
| COc1cc2c(cc1-c1c(C)noc1C)[nH]c1nc(C)nc(Nc3cc(C4CC4)nn3CCN(C)C)c12 [Cpd. No. 160, N-(3-Cyclopropyl-1-(2-(dimethylamino)ethyl)-1H-pyrazol-5-yl)-7-(3,5-dimethylisoxazol-4-yl)-6-methoxy-2-methyl-9H-pyrimido[4,5-b]indol-4-amine] | 14.1 nM |  |  |  |  |  |  |
| COc1cc2c(cc1-c1c(C)noc1C)[nH]c1nc(C)nc(Nc3cc(C4CC4)nn3C3CNC3)c12 [Cpd. No. 163, N-(1-(Azetidin-3-yl)-3-cyclopropyl-1H-pyrazol-5-yl)-7-(3,5-dimethylisoxazol-4-yl)-6-methoxy-2-methyl-9H-pyrimido[4,5-b]indol-4-amine] | 8.8 nM |  |  |  |  |  |  |
| COc1cc2c(cc1-c1c(C)noc1C)[nH]c1nc(N)nc(Nc3cc(C4CC4)nn3C)c12 [Cpd. No. 206, N4-(3-cyclopropyl-1-methyl-1H-pyrazol-5-yl)-7-(3,5-dimethylisoxazol-4-yl)-6-methoxy-9H-pyrimido[4,5-b]indole-2,4-diamine] | 5.6 nM |  |  |  |  |  |  |
| COCc1nc(Nc2cc(C3CC3)nn2C)c2c(n1)[nH]c1cc(-c3c(C)noc3C)c(OC)cc12 [Cpd. No. 207, N-(3-cyclopropyl-1-methyl-1H-pyrazol-5-yl)-7-(3,5-dimethylisoxazol-4-yl)-6-methoxy-2-(methoxymethyl)-9H-pyrimido[4,5-b]indol-4-amine] | 2.9 nM | 1.3 nM |  |  |  |  |  |
| COc1cc2c(cc1-c1c(C)noc1C)[nH]c1nc(C)nc(Nc3ccnc(C)c3)c12 [Cpd. No. 248, 7-(3,5-dimethylisoxazol-4-yl)-6-methoxy-2-methyl-N-(2-methylpyridin-4-yl)-9H-pyrimido[4,5-b]indol-4-amine] | 70 nM | 79 nM |  |  |  |  |  |
| COCCn1nc(C2CC2)cc1Nc1nc(C)nc2[nH]c3cc(-c4c(C)noc4C)c(OC)cc3c12 [Cpd. No. 266, N-(3-Cyclopropyl-1-(2-methoxyethyl)-1H-pyrazol-5-yl)-7-(3,5-dimethylisoxazol-4-yl)-6-methoxy-2-methyl-9H-pyrimido[4,5-b]indol-4-amine] | 10.3 nM | 3.1 nM |  |  |  |  |  |

More lines, now with the values ahead:

| IC50 (recombinant BRD4 BD1; [1]) | IC50 (recombinant BRD4 BD2; [2]) | IC50 (recombinant BRD4 BD1; [3]) | Ki (recombinant BRD4 BD1; [4]) | IC50 (recombinant BRD4 BD2; [5]) | Ki (recombinant BRD4 BD2; [6]) | IC50 (MDA-MB-436) | Structure (SMILES) |
| --- | --- | --- | --- | --- | --- | --- | --- |
|  |  | 18.9 nM | 3.7 nM | 9.8 nM | 2.1 nM |  | CCn1nc(C2CC2)cc1Nc1nccc2[nH]c3cc(-c4c(C)noc4C)c(OC)cc3c12 [Cpd. No. 285, N-(3-cyclopropyl-1-ethyl-1H-pyrazol-5-yl)-7-(3,5-dimethylisoxazol-4-yl)-8-methoxy-5H-pyrido[4,3-b]indol-1-amine] |
|  |  | 28.7 nM | 5.1 nM | 18.5 nM | 4.6 nM |  | COc1cc2c(cc1-c1c(C)noc1C)[nH]c1ccnc(Nc3c4c(nn3C(C)C)CCC4)c12 [Cpd. No. 286, 7-(3,5-dimethylisoxazol-4-yl)-N-(2-isopropyl-2,4,5,6-tetrahydrocyclopenta[c]pyrazol-3-yl)-8-methoxy-5H-pyrido[4,3-b]indol-1-amine] |
|  |  | 63 nM | 15 nM | 318 nM | 94 nM |  | COc1cc2c(nc1-c1c(C)noc1C)[nH]c1nc(C)nc(Nc3cc(C4CC4)nn3C)c12 [Cpd. No. 304] |
|  |  | 378 nM | 143 nM | 313 nM | 113 nM | 1280 nM | COc1nc2c(cc1-c1c(C)noc1C)[nH]c1nc(C)nc(Nc3cc(C)nn3C(C)(C)C)c12 [Cpd. No. 310, N-(1-(tert-butyl)-3-methyl-1H-pyrazol-5-yl)-7-(3,5-dimethylisoxazol-4-yl)-6-methoxy-2-methyl-9H-pyrido[2′,3′:4,5]pyrrolo[2,3-d] pyrimidin-4-amine] |
| 8.1 nM | 2.8 nM |  |  |  |  |  | COc1cc2c3c(N(C)c4cc(C5CC5)nn4C4CN(C)C4)nc(C)nc3n(C)c2cc1-c1c(C)noc1C [compound 258, N-(3-Cyclopropyl-1-(1-methylazetidin-3-yl)-1H-pyrazol-5-yl)-7-(3,5-dimethyl-isoxazol-4-yl)-6-methoxy-N,2,9-trimethyl-9H-pyrimido[4,5-b]indol-4-amine] |
|  |  | 1090 nM | 602 nM | > 1000 nM |  | 1100 nM | COc1nc2c(cc1-c1c(C)noc1C)[nH]c1nc(C)nc(Nc3nn(C)c4ncccc34)c12 [compound 311, 7-(3,5-dimethylisoxazol-4-yl)-6-methoxy-2-methyl-N-(1-methyl-1H-pyrazolo[3,4-b]pyridin-3-yl)-9H-pyrido[2′,3′:4,5]pyrrolo [2,3-d]pyrimidin-4-amine] |
|  |  | 378 nM | 140 nM | 346 nM | 101 nM | 1060 nM | COc1nc2c(cc1-c1c(C)noc1C)[nH]c1nc(C)nc(Nc3c(C)cnn3C(C)C)c12 [compound 312, 7-(3,5-dimethylisoxazol-4-yl)-N-(1-isopropyl-4-methyl-1H-pyrazol-5-yl)-6-methoxy-2-methyl-9H-pyrido[2′,3′:4,5]pyrrolo[2,3-d] pyrimidin-4-amine] |
|  |  | 4070 nM | 1200 nM | 4070 nM | 1140 nM | > 2000 nM | COc1nc2c(cc1-c1c(C)noc1C)[nH]c1nc(C)nc(Nc3cccc(C)c3)c12 [compound 313, 7-(3,5-dimethylisoxazol-4-yl)-6-methoxy-2-methyl-N-(m-tolyl)-9H-pyrido[2′,3′:4,5]pyrrolo[2,3-d] pyrimidin-4-amine] |
|  |  | 457 nM | 146 nM | 986 nM | 209 nM | > 2000 nM | COc1nc2c(cc1-c1c(C)noc1C)[nH]c1nc(C)nc(Nc3cc(C(C)(C)C)nn3C)c12 [compound 314, N-(3-(tert-butyl)-1-methyl-1H-pyrazol-5-yl)-7-(3,5-dimethylisoxazol-4-yl)-6-methoxy-2-methyl-9H-pyrido[2′,3′:4,5]pyrrolo [2,3-d]pyrimidin-4-amine] |
